From patent US20030125388A1, “5-Aminolevulinic acid formulation dissolved/dispersed in non-aqueous solvents” (priority 2000, published 2003)

Tests used:
[1] = UV-VIS measurement of 5-ALA solution after dilution with water; assay type: physicochemical; settings: 10% water-free solution, water added 1:1, subsequently diluted 1:100 with water
From the text: This was detected by measuring the decrease of absorbance at 447 nm (FIG. 2).

[2] = Decomposition check of non-aqueous 5-ALA solutions by capillary electrophoresis; assay type: physicochemical; settings: 10% solutions (weight/vol) in 1,2-propylene glycol and glycerol, after complete dissolution
Experimental: 10% solutions (weight/vol) of […] in 1,2-propylene glycol and glycerol were prepared.

NCC(=O)CCC(=O)O [5-ALA, 5-aminolevulinic acid]
by-products in UV spectrum [1]: without the presence of by-products | degradation products (DHPY, PY, porphobilinogen) in capillary electrophoresis [2]: neither DHPY, PY nor porphobilinogen were detected
